Source: the supplement of paper PMC10331698
± gives the standard deviation of the averaged measurements.

How the values were obtained:
Assay in all cases: level (log10 ratio to DMSO vehicle control); higher = higher biomarker level / cell amount than vehicle control
[1] = compound: OCCC(F)(F)C(F)(F)C(F)(F)C(F)(F)C(F)(F)C(F)(F)C(F)(F)C(F)(F)F [8:2 Fluorotelomer alcohol]; settings: 6700 nM; in DMSO
Procedure: (§1)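 BioMAP Diversity Plus panel of 12 human primary cell co-culture systems (3C, 4H, LPS, SAg, BT, BF4T, BE3C, CASM3C, HDF3CGF, KF3CT, MyoF, Mphg). Compounds were added 1 h before stimulation and left for 24 h (MyoF 48 h; BT 72 h for soluble read-outs or 6 d for IgG). Biomarkers were read by ELISA, cytotoxicity by SRB, PBMC viability and proliferation by Alamar Blue. Each well value was divided by the mean of 8 DMSO control wells on the same plate and log10 transformed; duplicate blinded samples were tested at 4 concentrations.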

[2] = compound: O=C(CC(=O)C(F)(F)C(F)(F)C(F)(F)F)c1cccs1 [(Perfluorobutyryl)-2-thenoylmethane]; settings: in DMSO
Procedure: as §1

Methotrexate = compound: CN(Cc1cnc2nc(N)nc(N)c2n1)c1ccc(C(=O)N[C@@H](CCC(=O)O)C(=O)O)cc1 [Methotrexate]; settings: in DMSO
Procedure: as §1

[3] = compound: C=CC(=O)OCC(F)(F)C(F)(F)C(F)(F)C(F)(F)COC(=O)C=C [1H,1H,6H,6H-Perfluorohexane-1,6-diol diacrylate]; settings: 6700 nM; in DMSO
Procedure: as §1

Perfluorooctanoic acid = compound: O=C(O)C(F)(F)C(F)(F)C(F)(F)C(F)(F)C(F)(F)C(F)(F)C(F)(F)F [Perfluorooctanoic acid]; settings: in DMSO
Procedure: as §1

[4] = compound: OCCCCC(F)(F)C(F)(F)C(F)(F)C(F)(F)F [4:4 Fluorotelomer alcohol]; settings: in DMSO
Procedure: as §1

Tetrafluorosuccinic acid = compound: O=C(O)C(F)(F)C(F)(F)C(=O)O [Tetrafluorosuccinic acid]; settings: in DMSO
Procedure: as §1

[5] = compound: O=S(=O)(O)CCC(F)(F)C(F)(F)C(F)(F)C(F)(F)F [4:2 Fluorotelomer sulfonic acid]; settings: in DMSO
Procedure: as §1

Test System | level (log10) [1] | level (log10) ([2]; 6700 nM) | level (log10) ([2]; 20000 nM) | level (log10) (Methotrexate; 1500 nM) | level (log10) (Methotrexate; 4400 nM) | level (log10) (Methotrexate; 13000 nM) | level (log10) (Methotrexate; 40000 nM) | level (log10) [3] | level (log10) (Perfluorooctanoic acid; 6700 nM) | level (log10) (Perfluorooctanoic acid; 20000 nM) | level (log10) (Perfluorooctanoic acid; 60000 nM) | level (log10) ([4]; 6700 nM) | level (log10) ([4]; 20000 nM) | level (log10) ([4]; 60000 nM) | level (log10) (Tetrafluorosuccinic acid; 6700 nM) | level (log10) (Tetrafluorosuccinic acid; 20000 nM) | level (log10) (Tetrafluorosuccinic acid; 60000 nM) | level (log10) ([5]; 6700 nM) | level (log10) ([5]; 20000 nM) | level (log10) ([5]; 60000 nM)
CASM3C:LDLR | -0.0045 ± 0.0078 | -0.044 ± 0.025 | -0.079 ± 0.033 | 0.011 ± 0.0042 | 0.0465 ± 0.042 | 0.0205 ± 0.022 | 0.0455 ± 0.066 | 0.001 ± 0.028 | -0.011 | 0.001 ± 0.013 | 0.004 ± 0.014 | 0.016 ± 0.0042 | 0.0175 ± 0.022 | 0.03 ± 0.042 | 0.0005 ± 0.0035 | -0.02 ± 0.014 | 0.0015 ± 0.019 | -0.0145 ± 0.012 | 0.0015 ± 0.0021 | -0.0035 ± 0.025
lMphg:CCL3/MIP-1alpha | 0.079 ± 0.011 | 0.0225 ± 0.029 | 0.012 ± 0.057 | -0.0375 ± 0.016 | -0.0305 ± 0.00071 | 0.0035 ± 0.012 | 0.029 ± 0.027 | -0.0045 ± 0.07 | 0.039 ± 0.033 | 0.0295 ± 0.066 | -0.0365 ± 0.067 | -0.0205 ± 0.0035 | -0.041 ± 0.021 | -0.0365 ± 0.022 | -0.0145 ± 0.025 | -0.0145 ± 0.00071 | -0.001 ± 0.023 | 0.047 ± 0.031 | 0.021 ± 0.054 | 0.0465 ± 0.042
HDF3CGF:CD54/ICAM-1 | 0.0315 ± 0.035 | -0.0475 ± 0.011 | -0.0295 ± 0.0064 | -0.0015 ± 0.00071 | 0.0045 ± 0.005 | 0.0055 ± 0.013 | -0.0065 ± 0.025 | -0.175 ± 0.038 | 0.005 ± 0.0057 | 0.0055 ± 0.011 | -0.0035 ± 0.005 | -0.0135 ± 0.0064 | -0.003 ± 0.011 | -0.0125 ± 0.013 | -0.0055 ± 0.03 | -0.006 ± 0.0071 | -0.0105 ± 0.016 | -0.013 ± 0.016 | -0.01 ± 0.017 | -0.0175 ± 0.013
CASM3C:IL-6 | -0.015 ± 0.014 | -0.006 ± 0.028 | -0.068 ± 0.013 | -0.035 ± 0.041 | -0.087 ± 0.076 | -0.009 ± 0.023 | -0.039 ± 0.041 | -0.0735 ± 0.15 | -0.0135 ± 0.019 | -0.022 ± 0.027 | -0.008 ± 0.031 | 0.0005 ± 0.016 | -0.0215 ± 0.025 | 0.0155 ± 0.077 | -0.0165 ± 0.015 | -0.0295 ± 0.0078 | -0.0015 ± 0.036 | 0.0015 ± 0.0092 | -0.0065 ± 0.0078 | 0.001 ± 0.028
lMphg:CXCL8/IL-8 | 0.076 ± 0.024 | -0.022 ± 0.027 | 0.048 ± 0.011 | 0.0075 ± 0.046 | -0.017 | 0.003 ± 0.023 | 0.044 ± 0.0057 | 0.0035 ± 0.0092 | 0.009 ± 0.021 | 0.073 ± 0.048 | 0.175 ± 0.054 | -0.04 ± 0.035 | -0.0355 ± 0.029 | 0.022 ± 0.021 | -0.0205 ± 0.0064 | -0.025 ± 0.021 | -0.0175 ± 0.023 | -0.0295 ± 0.043 | -0.0215 ± 0.021 | 0.005 ± 0.031
lMphg:CD106/VCAM-1 | 0.0055 ± 0.012 | -0.006 ± 0.0057 | -0.0715 ± 0.036 | -0.001 ± 0.025 | -0.016 ± 0.021 | -0.002 ± 0.0057 | -0.007 ± 0.021 | -0.0445 ± 0.018 | 0.0065 ± 0.0078 | 0.0065 ± 0.011 | 0.0025 ± 0.0092 | -0.0195 ± 0.005 | -0.0045 ± 0.019 | -0.0025 ± 0.042 | -0.017 ± 0.0028 | 0.0085 ± 0.0021 | 0.018 ± 0.03 | -0.0145 ± 0.0078 | -0.0075 ± 0.011 | -0.0135 ± 0.005
3C:CD142/Tissue Factor | 0.0035 ± 0.14 | -0.0775 ± 0.022 | -0.356 ± 0.057 | -0.0325 ± 0.042 | -0.0135 ± 0.033 | -0.0175 ± 0.081 | -0.005 ± 0.061 | -0.134 ± 0.04 | 0.0395 ± 0.057 | 0.0135 ± 0.071 | 0.049 ± 0.011 | -0.0215 ± 0.025 | -0.018 ± 0.042 | 0.0155 ± 0.0092 | 0.001 ± 0.042 | 0.0025 ± 0.0064 | 0.006 ± 0.023 | -0.007 ± 0.044 | 0.0225 ± 0.011 | 0.024 ± 0.025
lMphg:IL-1alpha | -0.0045 ± 0.025 | 0.0035 ± 0.0035 | 0.0395 ± 0.04 | -0.0335 ± 0.097 | -0.0545 ± 0.083 | -0.041 ± 0.057 | -0.028 ± 0.047 | 0.0245 ± 0.057 | -0.0105 ± 0.0021 | -0.0085 ± 0.026 | 0.0545 ± 0.026 | -0.0075 ± 0.005 | -0.0125 ± 0.005 | 0.0115 ± 0.015 | -0.016 ± 0.0057 | -0.015 ± 0.025 | -0.0035 ± 0.03 | 0.026 ± 0.048 | 0.0125 ± 0.032 | 0.007 ± 0.021
BE3C:PAI-I | -0.055 ± 0.021 | -0.127 ± 0.023 | -0.363 ± 0.035 | -0.0595 ± 0.015 | -0.031 ± 0.045 | -0.051 ± 0.048 | -0.0665 ± 0.084 | 0.0495 ± 0.025 | 0.001 ± 0.0042 | 0.0395 ± 0.013 | 0.041 ± 0.0028 | -0.026 ± 0.02 | -0.002 ± 0.031 | 0.011 | -0.011 ± 0.0071 | 0.002 ± 0.018 | -0.001 ± 0.023 | -0.0075 ± 0.0035 | -0.014 ± 0.0085 | -0.008 ± 0.017
CASM3C:Proliferation | 0.003 ± 0.017 | -0.0865 ± 0.013 | -0.245 ± 0.018 | -0.011 ± 0.096 | 0.0805 ± 0.025 | 0.0585 ± 0.0021 | 0.041 ± 0.014 | -0.0005 ± 0.037 | -0.023 ± 0.051 | -0.0165 ± 0.032 | 0.0105 ± 0.0064 | -0.01 ± 0.0099 | -0.0345 ± 0.005 | -0.0075 ± 0.057 | 0.001 ± 0.0057 | -0.053 ± 0.016 | -0.0085 ± 0.06 | -0.012 ± 0.021 | -0.044 ± 0.0057 | 0 ± 0.031
BE3C:uPA | -0.0175 ± 0.00071 | 0.0235 ± 0.00071 | 0.0095 ± 0.022 | -0.013 ± 0.0028 | -0.0315 ± 0.033 | -0.0205 ± 0.052 | -0.0015 ± 0.036 | -0.02 ± 0.014 | -0.014 ± 0.013 | -0.0065 ± 0.0021 | 0.0185 ± 0.015 | 0.0035 ± 0.011 | -0.0115 ± 0.00071 | 0.0015 ± 0.0021 | -0.007 ± 0.0057 | -0.016 ± 0.021 | -0.003 ± 0.013 | -0.001 ± 0.014 | 0 ± 0.0057 | -0.0035 ± 0.0092
CASM3C:Serum Amyloid A | 0.0015 ± 0.016 | 0.0285 ± 0.013 | -0.038 ± 0.013 | -0.0405 ± 0.015 | -0.0145 ± 0.028 | 0.002 ± 0.045 | -0.044 ± 0.068 | -0.0575 ± 0.0078 | -0.002 ± 0.013 | 0.006 ± 0.051 | 0.022 ± 0.038 | -0.0055 ± 0.025 | -0.01 ± 0.047 | 0.0295 ± 0.063 | 0.011 ± 0.011 | 0.017 ± 0.018 | 0.025 ± 0.037 | -0.008 ± 0.017 | -0.0055 ± 0.0021 | -0.015 ± 0.041
MyoF:Collagen III | -0.0205 ± 0.021 | -0.059 ± 0.018 | -0.141 ± 0.0078 | -0.011 ± 0.04 | -0.001 ± 0.065 | 0.009 ± 0.069 | 0.014 ± 0.041 | -0.037 ± 0.045 | 0.007 ± 0.0028 | -0.001 ± 0.0071 | -0.039 ± 0.0099 | 0.0085 ± 0.012 | 0.0015 ± 0.0078 | 0.003 ± 0.017 | -0.013 ± 0.016 | -0.0205 ± 0.005 | -0.016 ± 0.0099 | -0.013 ± 0.016 | -0.032 ± 0.0028 | -0.0045 ± 0.011
KF3CT:CXCL10/IP-10 | -0.0355 ± 0.018 | -0.0205 ± 0.00071 | -0.018 ± 0.0014 | 0.0025 ± 0.018 | 0.0015 ± 0.011 | 0.004 ± 0.011 | -0.0005 ± 0.021 | -0.0365 ± 0.005 | -0.006 ± 0.0042 | -0.01 ± 0.0042 | -0.0275 ± 0.0064 | 0.0105 ± 0.04 | 0.02 ± 0.03 | 0.0275 ± 0.037 | -0.006 ± 0.0028 | -0.0055 ± 0.0064 | -0.0075 ± 0.00071 | -0.007 ± 0.0028 | -0.0145 ± 0.011 | -0.0115 ± 0.0092
